The assay addresses T1, recombinant human TRPV1 (Homo sapiens, UniProt Q8NER1).
T1 construct: expressed in transfected cells
The experiment in a line: FLIPR based Ca2+ influx assay, capsaicin-induced, TRPV1.CHO cells. The format is cell-based. The following applies: CHO-K1 cells stably expressing recombinant human TRPV1; 30 nM capsaicin (~EC80); 15 mins pre-incubation. On the procedure:
The functional activity of compounds at the TRPV1 receptor was determined using a Molecular Devices FLIPR based Ca^2+ influx assay, employing a Ca^2+ sensitive fluorescent dye and a CHO-K1 cell line, stably expressing recombinant human TRPV1, under the control of a CMV promoter (TRPV1.CHO cells). TRPV1.CHO cells were routinely maintained at 37° C./5% CO2 in normal growth medium (Dulbecco's Modified Eagles medium (DMEM/NUT.MDC.F-12 GLUTAMAX-1 (1:1) with PYRIDOXINE) supplemented with 10% fetalclone II serum and 0.4 mg/ml G418, (all Invitrogen).
Test compounds were prepared as 10 mM stock solution in DMSO and tested for activity over several log units (ranging […]-100 pM). Serial dilutions (half-log dose response) were prepared in 100% DMSO with further dilutions in aqueous assay buffer to final assay concentration for IC50 determination (1% DMSO final).
TRPV1.CHO cells were seeded (10,000 cells/well) in a 384 clear bottom plate (Costar) 24 hr prior to assay. […]
TRPV1 responses were assessed following addition, in the FLIPR, of 12.5 μl/well of test compound (to give appropriate final concentration) for 15 mins time followed by 12.5 μl/well of 120 nM capsaicin (agonist) in TRPV1 buffer to give a final concentration of capsaicin of 30 nM (˜EC80 concentration). Ca^2+ influx was assessed by measurement of fluorescence. Baseline fluorescence responses were measured for approximately 10 s prior to addition of capsaicin. Increases in fluorescence emission following capsaicin addition were measured for a further 110 s. Responses were recorded as Max-Min fluorescence. Antagonist induced inhibition of TRPV1 mediated increases in intracellular [Ca^2+] was assessed relative to wells on the same plate to which capsaicin was added in the absence of antagonist (i.e pre-incubation in buffer alone).

T1 sequence (Q8NER1 whole entry): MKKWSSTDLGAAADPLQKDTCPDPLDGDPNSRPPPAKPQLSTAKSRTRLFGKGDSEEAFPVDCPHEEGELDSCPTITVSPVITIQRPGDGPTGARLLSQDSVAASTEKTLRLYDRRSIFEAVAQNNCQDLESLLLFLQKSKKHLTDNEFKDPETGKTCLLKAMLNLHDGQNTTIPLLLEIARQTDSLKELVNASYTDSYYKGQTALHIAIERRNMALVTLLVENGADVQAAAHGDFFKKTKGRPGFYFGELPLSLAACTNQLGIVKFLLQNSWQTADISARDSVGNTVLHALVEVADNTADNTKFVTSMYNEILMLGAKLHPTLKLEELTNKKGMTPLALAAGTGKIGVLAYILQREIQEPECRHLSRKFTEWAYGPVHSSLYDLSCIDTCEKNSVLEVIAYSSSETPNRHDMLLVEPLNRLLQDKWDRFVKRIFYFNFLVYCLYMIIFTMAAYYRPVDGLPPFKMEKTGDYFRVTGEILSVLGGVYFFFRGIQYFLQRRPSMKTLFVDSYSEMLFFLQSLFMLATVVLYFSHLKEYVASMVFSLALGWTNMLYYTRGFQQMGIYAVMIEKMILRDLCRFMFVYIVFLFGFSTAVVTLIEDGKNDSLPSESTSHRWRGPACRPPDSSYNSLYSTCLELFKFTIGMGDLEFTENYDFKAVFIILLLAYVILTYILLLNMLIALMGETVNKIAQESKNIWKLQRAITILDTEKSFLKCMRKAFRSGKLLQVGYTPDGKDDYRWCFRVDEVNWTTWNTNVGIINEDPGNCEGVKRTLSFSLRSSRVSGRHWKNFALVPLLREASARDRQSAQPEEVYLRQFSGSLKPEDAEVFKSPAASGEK

For orientation: IC50 means the concentration that inhibits the measured activity by half. On to `C[Si](C)(C)c1ccc(NC(=O)N2CCN(c3ncccc3Cl)CC2)cc1` [A-01, 4(3-chloropyridin-2-yl)-N-(4-(trimethylsilyl)phenyl)piperazine-1-carboxamide], for which the IC50 came to 0.5 nM.

As to `C[Si](C)(C)c1ccc(NC(=O)C2=CCN(c3ncccc3Cl)CC2)cc1` [A-05, 1-(3-chloropyridin-2-yl)-N-(4-(trimethylsilyl)phenyl)-1,2,3,6-tetrahydropyridine-4-carboxamide], the IC50 stood at 2.3 nM.

Take `C[Si](C)(C)c1ccc(NC(=O)c2ccc(-c3ncccc3C(F)(F)F)cc2)cc1` [A-04, 4-(3-(trifluoromethyl)pyridin-2-yl)-N-(4-(trimethylsilyl)phenyl)benzamide]: the IC50 was 5.4 nM.

Source of the values: US8748610B2, “Compounds as TRPV1 antagonists, pharmaceutical compositions and medical uses thereof” (FL Therapeutics LLC, priority 2009, dated 2014).
